Consider one molecule from patent publication US7265259B2, “GSK-3β expressed in a transgenic mouse” (Consejo Superior de Investigaciones Clentificas, priority 2000, dated 2007).

The experiment relates to Tet/GSK-3β mice. Description: Genotype frequency of double transgenic mice after prenatal doxycycline treatment (perinatal lethality). In kind it is in vivo, mouse. As to conditions: 14% without treatment, 25% expected. The source says: Tet/GSK-3B mice were viable and fertile and appeared normal without pharmacological intervention to suppress transgene expression. This seemed to contradict the previously postulated toxicity of increased GSK-3β expression in brain (Brownlees et al., 1997). […] The Tet/GSK-3β mice were underrepresented (14%, n=401). This might be indicative of lethality due to embryonic overexpression of GSK-3β in Tet/GSK-3β mice.
We had previously observed perinatal transgene expression and lethality in our CamKIIα-tTA driven animal model of Huntington's disease (HD94) (Yamamoto et al., 2000). In the case of HD94 mice, if pregnant mice are given the tetracycline analog doxycycline (2 mg/ml) in the drinking water ad libitum from E15 to birth, only postnatal transgenic expression takes place and the frequency of the four expected genotypes is restored to 25%. We thus decided to apply the same program of perinatal doxycycline treatment to the Tet/GSK-3B mice. […] As expected, prenatal doxycycline treatment normalized to 25% the frequency of Tet/GSK-3β mice and thus, to maximize yield of double transgenic mice in litters, the perinatal doxycycline treatment was routinely employed.

`C[C@H]1c2cccc(O)c2C(=O)C2=C(O)[C@]3(O)C(=O)C(C(N)=O)=C(O)[C@@H](N(C)C)[C@@H]3[C@@H](O)[C@@H]21` [doxycycline]: the “frequency of Tet/GSK-3β mice” value is given as 25%.
